pIC50: −log10 of the molar value.
Experiments:
cortical neuron cells = assay: Protective effect on iron-induced neuronal cell injury (LDH release); assay type: cell-based; conditions: FeSO4 50 μM; for protective effect on neuron cell: Inhibition (%, 30 μM compound addition): LDH reduction vs control; for pIC50: LDH
Method: From the brains of 17˜18 day-old embryos, cortical neuron cells were isolated and then, cultured at 37° C. for 7˜9 days in a 5% CO2 incubator. The said cortical cell cultures were washed twice with MEM (Minimum essential medium) to reduce the serum level to 0.2%. […] Then, the compound of the said concentration was pre-treated for 30 min, respectively. For the experiment, test compound was dissolved in DMSO and diluted in a medium. At this time, the final concentration of DMSO was not allowed to exceed 0.1%. For control group, only vehicle was applied.
After the said pre-treatment, FeSO4 was added to the medium for a final concentration to be 50 μM. The medium was cultured in CO2 incubator for 24 hours. During the incubation, lactate dehydrogenase (LDH) was released by iron. The serum level of lactate dehydrogenase released into the medium was measured to assess necrosis of neuronal cell by the oxidative toxicity of iron. The protective effect on neuron cells of the test compounds was evaluated by calculating the LDH reduction rate of treatment-group compared with that of the control group.

isolated rat aorta = assay: Vasodilating effect on blood vessel excised from rats (methoxamine-constricted aorta); conditions: isolated rat aorta constricted with methoxamine (3 μM); read-out: Concentration for inhibition of constriction induced by methoxamine in rat arota (IC50)
Text: Rats (350˜450 g, obtained from the Experimental Animal Team of the Korea Research Institute of Chemical Technology) were knocked to be unconscious by hitting the occipital region, sacrificed by cervical dislocation, and underwent thoracotomy. After being quickly removed, the thoracic aorta was deprived of the adipose tissue and cut into aortic rings of 3 mm width. The aorta was lightly rubbed with cotton club soaked in a modified Krebs Henseleit buffer (Physiological salt solution) to remove the inner epithelial layer therefrom. While being hung in an organ bath containing a physiological buffer, the vascular smooth muscle was allowed to equilibrate under a resting tension of 2 g and then, stand for 1 hour at 37° C. for stabilization, supplying a carbogen consisting of 95% O2˜5% CO2.
Thereafter, the vascular smooth muscle was constricted with 10^−5M phenylephrine and washed several times with physiological saline solution. The said procedure was repeated again to ensure the stable reactivity of vascular smooth muscle to repetitive constriction/relaxation.
Thereafter, 3×10^−6 M methoxamine was applied to induce an intensive constriction in the vascular smooth muscle. When the vasoconstriction induced by the methoxamine was reached and maintained to a maximum, test compounds and control material was cumulatively added to the organ bath in concentration of 1, 3, 10 and 30 μM, respectively, to examine the vasodilating effect. Cromakalim, BMS-180448 (the compound of formula 4) and BMS-191095 (the compound of formula 5), known to be the first generation KATP opener with potent vasodilating effect were used as control materials.
The change rate of constriction by the addition of the drugs compared to the maximal constriction induced by methoxamine was calculated to plot a concentration-relaxation response curve. Through a least linear regression analysis, IC50 that the drug concentration at which the vascular tissue is relaxed to 50% extent of the maximal constriction, was obtained for each drug.

[1] = Acute oral toxicity test in rats; conditions: SD, rat, in vivo, single oral dose, suspended in 0.5% methyl cellulose, read-out: lethal dose (LD50) for oral administration
Method: In this test, six-week old SPF SD rats were used with two rats assigned to each group. Each group was consisted of two rats. The compounds prepared in example 1, 7, 11, 17, 22, 24, 26, 28, 30, 32, 34, 42, 52, 54, 55, 56, 57, 59, 60, 61, 70, 75, 77, 79, 81, 83, 85, and 89 were suspended in 0.5% methyl cellulose, respectively. […] Also, hematological test and biochemical analysis were accomplished. After sacrificing the animals, autopsy was performed for macroscopic observations of the organs and tissues. As a result, there was no significant changes in clinical symptoms, body weight and mortalities. Also in hematology, serum chemistry parameters, macroscopic observation and drug-related changes were not observed.

Row | Structure (SMILES) | protective effect on neuron cell: Inhibition (%, 30 μM compound addition) (cortical neuron cells; 24 hours) [%] | pIC50 (cortical neuron cells; Cortical neurone, 24 h) | pIC50 (cortical neuron cells; 24 hours) | pIC50 (isolated rat aorta) | LD50 [1] [mg/kg]
1 | COC(OC)[C@@]1(C)Oc2ccc(N)cc2[C@H](N(Cc2nnn(C)n2)c2cc(C)ccc2O)[C@H]1O [Example 71, (2S,3R,4S)-6-amino-4-[N-(2-hydroxy-5-methylphenyl)-N-(2-methyl-2H-tetrazol-5-ylmethyl)amino]-3-hydroxy-2-methyl-2-dimethoxymethyl-3,4-dihydro-2H-1-benzopyran] | 89 | > 6.00 | 6.05 |  | 
2 | CC1(C)Oc2ccc(C#N)cc2[C@H](N(Cc2ncc[nH]2)c2ccc(Cl)cc2)[C@H]1O [BMS-191095, reference compound] |  |  |  | 5.67 | 
3 | COC(OC)[C@]1(C)Oc2ccc(N)cc2[C@H](N(Cc2nnn(C)n2)c2ccc(C(F)(F)F)cc2)[C@H]1O [Example 79, (2R,3R,4S)-6-amino-4-[N-(4-trifluoromethylphenyl)-N-(2-methyl-2H-tetrazol-5-ylmethyl)amino]-3-hydroxy-2-methyl-2-dimethoxymethyl-3,4-dihydro-2H-1-benzopyran] | 107 | > 5.70 | 5.77 |  | > 2000
4 | COC(OC)[C@@]1(C)Oc2ccc(N)cc2[C@H](N(Cc2ccccc2)Cc2nnn(C)n2)[C@H]1O [Example 57, (2S,3R,4S)-6-amino-4[N-benzyl-N-(2-methyl-2H-tetrazol-5-ylmethyl)amino]-3-hydroxy-2-methyl-2-dimethoxymethyl-3,4-dihydro-2H-1-benzopyran] | 94 | 5.51 |  |  | > 2000
5 | COC(OC)[C@@]1(C)Oc2ccc(N)cc2[C@@H](N(Cc2nnn(C)n2)c2ccc(Cl)cc2)[C@@H]1O [Example 10, (2S,3S,4R)-6-amino-4-[N-(4-chlorophenyl)-N-(2-methyl-2H-tetrazol-5-ylmethyl)amino]-3-hydroxy-2-methyl-2-dimethoxymethyl-3,4-dihydro-2H-1-benzopyran] | 103 | 5.66 |  | < 4.52 | 
6 | COC(OC)[C@@]1(C)Oc2ccc(N)cc2[C@H](N(Cc2nnn(C)n2)c2ccc(O)cc2C)[C@H]1O [Example 65, (2S, 3R,4S)-6-amino-4-[N-(2methyl-4-hydroxyphenyl)-N-(2-methyl-2H-tetrazol-5-ylmethyl)amino]-3-hydroxy-2-methyl-2-dimethoxymethyl-3,4-dihydro-2H-1-benzopyran] |  |  |  | < 4.52 | 
7 | COC(OC)[C@]1(C)Oc2ccc([N+](=O)[O-])cc2[C@H](N(Cc2nnn(C)n2)c2ccc(OC(F)(F)F)cc2)[C@H]1O [Example 82, (2R,3R,4S)-6-nitro-4-[N-(4-trifluoromethoxyphenyl)-N-(2-methyl-2H-tetrazol-5-ylmethyl)amino]-3-hydroxy-2-methyl-2-dimethoxymethyl-3,4-dihydro-2H-1-benzopyran] | 69 | > 5.70 | 5.89 |  | 
8 | COC(OC)[C@]1(C)Oc2ccc([N+](=O)[O-])cc2[C@@H](N(Cc2nnn(C)n2)c2ccc(OC(F)(F)F)cc2)[C@@H]1O [Example 84, (2R,3S,4R)-6-nitro-4-[N-(4-trifluoromethoxyphenyl)-N-(2-methyl-2H-tetrazol-5-ylmethyl)amino]-3-hydroxy-2-methyl-2-dimethoxymethyl-3,4-dihydro-2H-1-benzopyran] | 48 | 5.25 |  |  | 
9 | COC(OC)[C@@]1(C)Oc2ccc([N+](=O)[O-])cc2[C@H](N(Cc2nnn(C)n2)c2ccc(C(F)(F)F)cc2)[C@H]1O [Example 33, (2S,3R,4S)-6-nitro-4-[N-(4-trifluoromethylphenyl)-N-(2-methyl-2H-tetrazol-5-ylmethyl)amino]-3-hydroxy-2-methyl-2-dimethoxymethyl-3,4-dihydro-2H-1-benzopyran] | 91 | 5.22 |  |  | 
10 | COC(OC)[C@@]1(C)Oc2ccc(N)cc2[C@H](N(Cc2nnn(C)n2)c2ccccc2)[C@H]1O [Example 55, (2S,3R,4S)-6-amino-4-[N-(2-methyl-2H-tetrazol-5-ylmethyl)phenylamino]-3-hydroxy-2-methyl-2-dimethoxymethyl-3,4-dihydro-2H-1-benzopyran] |  |  |  |  | > 2000
11 | CC1(C)Oc2ccc(C#N)cc2C(N2CCCC2=O)C1O (stereo not drawn) [Cromakalim, reference compound] |  |  |  | 7.17 | 
12 | COC(OC)[C@@]1(C)Oc2ccc(N)cc2[C@@H](N(Cc2nnn(C)n2)c2ccc(C)cc2)[C@@H]1O [Example 24] | 98 |  | 5.21 | < 4.52 | 
13 | COC(OC)[C@@]1(C)Oc2ccc([N+](=O)[O-])cc2[C@@H](N(Cc2nnn(C)n2)c2ccc(C(F)(F)F)cc2)[C@@H]1O [Example 74, (2S,3S,4R)-6-nitro-4-[N-(4-trifluoromethylphenyl)-N-(2-methyl-2H-tetrazol-5-ylmethyl)amino]-3-hydroxy-2-methyl-2-dimethoxymethyl-3,4-dihydro-2H-1-benzopyran] | 90 | 5.28 |  |  | 
14 | COC(OC)[C@@]1(C)Oc2ccc([N+](=O)[O-])cc2[C@H](N(Cc2nnn(C)n2)c2cccc(Cl)c2)[C@H]1O [Example 25, (2S,3R,4S)-6-nitro-4-[N-(3-chlorophenyl)-N-(2-methyl-2H-tetrazol-5-ylmethyl)amino]-3-hydroxy-2-methyl-2-dimethoxymethyl-3,4-dihydro-2H-1-benzopyran] | 83 |  |  | 4.56 | 
15 | COC(OC)[C@]1(C)Oc2ccc([N+](=O)[O-])cc2[C@@H](N(Cc2nnn(C)n2)c2ccc(C(F)(F)F)cc2)[C@@H]1O [Example 76, (2R,3S,4R)-6-nitro-4-[N-(4-trifluoromethylphenyl)-N-(2-methyl-2H-tetrazol-5-ylmethyl)amino]-3-hydroxy-2-methyl-2-dimethoxymethyl-3,4-dihydro-2H-1-benzopyran] | 52 | 5.24 |  |  | 
16 | COC(OC)[C@@]1(C)Oc2ccc([N+](=O)[O-])cc2[C@@H](N(Cc2nnn(C)n2)c2ccc(OC(F)(F)F)cc2)[C@@H]1O [Example 80, (2S,3S,4R)-6-nitro-4-[N-(4-trifluoromethoxyphenyl)-N-(2-methyl-2H-tetrazol-5-ylmethyl)amino]-3-hydroxy-2-methyl-2-dimethoxymethyl-3,4-dihydro-2H-1-benzopyran] | 95 | 5.30 |  |  | 
17 | COC[C@]1(C)Oc2ccc([N+](=O)[O-])cc2[C@@H](N(Cc2nnn(C)n2)c2ccc(F)cc2)[C@@H]1O [Example 99, (2S,3S,4R)-6-nitro-4-[N-(4-fluorophenyl)-N-(2-methyl-2H-tetrazol-5-ylmethyl)amino]-3-hydroxy-2-methyl-2-methoxymethyl-3,4-dihydro-2H-1-benzopyran] | 69 | 4.68 |  |  | 
18 | COC(OC)[C@]1(C)Oc2ccc([N+](=O)[O-])cc2[C@H](N(Cc2nnn(C)n2)c2ccc(C(F)(F)F)cc2)[C@H]1O [Example 78, (2R,3R,4S)-6-nitro-4-[N-(4-trifluoromethylphenyl)-N-(2-methyl-2H-tetrazol-5-ylmethyl)amino]-3-hydroxy-2-methyl-2-dimethoxymethyl-3,4-dihydro-2H-1-benzopyran] | 69 | 5.36 |  |  | 

— patent publication US7414068B2, “Benzopyran derivatives substituted with secondary amines including tetrazole, method for the preparation thereof and pharmaceutical compositions containing them” (Dongbu Hannong Chemical Co., Ltd., priority 2002, dated 2008)
